Data: patent US12594349B2, “Compositions and methods for the targeting of PCSK9” (Scribe Therapeutics Inc., priority 2022, dated 2026)

Test system: human PCSK9 locus
Assay: Secreted PCSK9 by ELISA in Huh7 cells transfected with mRNA and gRNA
Format: cell-based
Conditions: for Secreted PCSK9 / Percent reduction in PCSK9 secretion / Average percent reduction in PCSK9 secretion: Huh7 cells; for Secreted PCSK9: 6 days post-transfection, normalized to total cell count; for Percent reduction in PCSK9 secretion / Average percent reduction in PCSK9 secretion: LTRP5-ADD-ZIM3 mRNA; for Percent reduction in PCSK9 secretion: day 6, relative to non-targeting gRNA control; for Average percent reduction in PCSK9 secretion: day 6, averaged from the two doses
Protocol: To assess PCSK9 secretion, seeded Huh7 cells were transfected with mRNA encoding a catalytically-active CasX 676, dXR1, or LTRP5-ADD-ZIM3 and a gRNA with scaffold 316 and spacer targeting either the B2M or PCSK9 locus. Media supernatant was harvested at 6, 18, 36, and 87 days post-transfection to assess level of PCSK9 secretion by ELISA. Levels of PCSK9 secretion were normalized to total cell count. As an additional control, PCSK9 secretion was also measured in the media supernatant harvested from wells containing untreated, naïve cells.
The following three human hepatocyte cancer cell lines were used in this experiment: HepG2 cells, Hep3B cells, and Huh7 cells. ˜15,000 cells of each cell line were seeded per well; the next day, seeded cells were transfected with mRNA encoding a catalytically-active CasX 676, dXR1, or LTRP5-ADD-ZIM3 and a gRNA with scaffold 316 and spacer targeting either the B2M or PCSK9 locus (see Table 23 for specific spacers and sequences). Media supernatant was harvested at 4 days post-transfection to assess level of PCSK9 secretion by ELISA, and levels of PCSK9 secretion were normalized to total cell count and illustrated in FIGS. 11A-11C. Culturing of treated Huh7 cells continued, and media supernatant was harvested at 14 and 27 days post-transfection for measuring PCSK9 secretion by ELISA. As an additional experimental control, PCSK9 secretion was also measured in the media supernatant harvested from wells containing untreated, naïve cells.
To assess PCSK9 secretion, seeded Huh7 cells were co-transfected with mRNA encoding for LTRP5-ADD-ZIM3 and a gRNA with scaffold 316 and spacer targeting the PCSK9 locus using Lipofectamine™ 3000. Two doses of total RNA input at a 2:1 mass ratio of mRNA to gRNA were used for screening: 50 ng mRNA:25 ng gRNA and 25 ng mRNA:12.5 ng gRNA. Media supernatant was harvested at 6 days post-transfection to assess level of PCSK9 secretion by ELISA (Table 74). Levels of PCSK9 secretion were normalized to total cell count. As an additional control, PCSK9 secretion was also measured in the media supernatant harvested from cells transfected with mRNA encoding for mScarlet.

[1] = LTRP5-ADD-ZIM3 mRNA + gRNA scaffold 316, 25 ng mRNA:12.5 ng gRNA
[2] = LTRP5-ADD-ZIM3 mRNA + gRNA scaffold 316, 50 ng mRNA:25 ng gRNA

TG-06-145 (guide UGGGUCCACCUUGUCUCCUG; listed as RNA, chemistry not given here)
Secreted PCSK9 [1]: 18.54 ng/mL
Secreted PCSK9 [2]: 15.8 ng/mL
Percent reduction in PCSK9 secretion (25 ng mRNA:12.5 ng gRNA): 73.98%
Percent reduction in PCSK9 secretion (50 ng mRNA:25 ng gRNA): 80.8%
Average percent reduction in PCSK9 secretion: 77.39%

TG-06-169 (guide CGGGGUUGGGAGACCCGGAG; listed as RNA, chemistry not given here)
Secreted PCSK9 [1]: 62.55 ng/mL
Secreted PCSK9 [2]: 66.39 ng/mL
Percent reduction in PCSK9 secretion (25 ng mRNA:12.5 ng gRNA): 12.2%
Percent reduction in PCSK9 secretion (50 ng mRNA:25 ng gRNA): 19.3%
Average percent reduction in PCSK9 secretion: 15.75%

TG-06-352 (guide UCCCUCACCAAUUACCCCUC; listed as RNA, chemistry not given here)
secreted PCSK9 repression compared with spacer 6.1 paired with CasX 676 (Huh7, LTRP5-ADD-ZIM3 mRNA + gRNA scaffold 316, through day 36): effective repression

TG-06-342 (guide AAUUACAGGCAACAGGAAGG; listed as RNA, chemistry not given here)
Percent reduction in PCSK9 secretion (25 ng mRNA:12.5 ng gRNA): 5.6%

TG-06-139 (guide AGGAGCAGCUAGUUGGUAAG; listed as RNA, chemistry not given here)
Secreted PCSK9 [1]: 25.45 ng/mL
Secreted PCSK9 [2]: 15.03 ng/mL
Percent reduction in PCSK9 secretion (25 ng mRNA:12.5 ng gRNA): 64.28%
Percent reduction in PCSK9 secretion (50 ng mRNA:25 ng gRNA): 81.73%
Average percent reduction in PCSK9 secretion: 73.01%

TG-06-004 (guide GCCAGGCCGUCCUCCUCGGA; listed as RNA, chemistry not given here)
Secreted PCSK9 [1]: 73.05 ng/mL
Secreted PCSK9 [2]: 54.83 ng/mL
Percent reduction in PCSK9 secretion (25 ng mRNA:12.5 ng gRNA): 2.54%
Percent reduction in PCSK9 secretion (50 ng mRNA:25 ng gRNA): 33.35%
Average percent reduction in PCSK9 secretion: 15.41%

TG-06-168 (guide GUGGGAAGGUUCGCGGGGUU; listed as RNA, chemistry not given here)
Secreted PCSK9 [1]: 50.96 ng/mL
Secreted PCSK9 [2]: 19.1 ng/mL
Percent reduction in PCSK9 secretion (25 ng mRNA:12.5 ng gRNA): 28.47%
Percent reduction in PCSK9 secretion (50 ng mRNA:25 ng gRNA): 76.78%
Average percent reduction in PCSK9 secretion: 52.62%

TG-06-147 (guide GUGUUUCCUGGGUCCACCUU; listed as RNA, chemistry not given here)
Secreted PCSK9 [1]: 37.43 ng/mL
Secreted PCSK9 [2]: 53.6 ng/mL
Percent reduction in PCSK9 secretion (25 ng mRNA:12.5 ng gRNA): 47.46%
Percent reduction in PCSK9 secretion (50 ng mRNA:25 ng gRNA): 34.85%
Average percent reduction in PCSK9 secretion: 41.15%

TG-06-125 (guide AGAAAGAGCAAGCCUCAUGU; listed as RNA, chemistry not given here)
Secreted PCSK9 [1]: 46.11 ng/mL
Secreted PCSK9 [2]: 24.93 ng/mL
Percent reduction in PCSK9 secretion (25 ng mRNA:12.5 ng gRNA): 35.28%
Percent reduction in PCSK9 secretion (50 ng mRNA:25 ng gRNA): 69.7%
Average percent reduction in PCSK9 secretion: 52.49%

TG-06-159 (guide GCGCGCCCCUUCACGCGCCC; listed as RNA, chemistry not given here)
Secreted PCSK9 [1]: 80.84 ng/mL
Secreted PCSK9 [2]: 53.15 ng/mL
Percent reduction in PCSK9 secretion (25 ng mRNA:12.5 ng gRNA): 13.47%
Percent reduction in PCSK9 secretion (50 ng mRNA:25 ng gRNA): 35.4%
Average percent reduction in PCSK9 secretion: 10.97%

TG-06-344 (guide CAGUUUCUGCCUCGCCGCGG; listed as RNA, chemistry not given here)
Percent reduction in PCSK9 secretion (50 ng mRNA:25 ng gRNA): 0.01%

TG-06-146 (guide GAAGUCUCACUGGUCAGCAG; listed as RNA, chemistry not given here)
Secreted PCSK9 [1]: 20.34 ng/mL
Secreted PCSK9 [2]: 40.84 ng/mL
Percent reduction in PCSK9 secretion (25 ng mRNA:12.5 ng gRNA): 71.45%
Percent reduction in PCSK9 secretion (50 ng mRNA:25 ng gRNA): 50.36%
Average percent reduction in PCSK9 secretion: 60.9%

TG-06-151 (guide CUCUGCGCGUAAUCUGACGC; listed as RNA, chemistry not given here)
Secreted PCSK9 [1]: 66.42 ng/mL
Secreted PCSK9 [2]: 53.44 ng/mL
Percent reduction in PCSK9 secretion (25 ng mRNA:12.5 ng gRNA): 6.77%
Percent reduction in PCSK9 secretion (50 ng mRNA:25 ng gRNA): 35.05%
Average percent reduction in PCSK9 secretion: 20.91%

TG-06-143 (guide GAAUCAAUCCUACUGUGGAC; listed as RNA, chemistry not given here)
Secreted PCSK9 [1]: 22.33 ng/mL
Secreted PCSK9 [2]: 38.69 ng/mL
Percent reduction in PCSK9 secretion (25 ng mRNA:12.5 ng gRNA): 68.66%
Percent reduction in PCSK9 secretion (50 ng mRNA:25 ng gRNA): 52.97%
Average percent reduction in PCSK9 secretion: 60.81%

TG-06-170 (guide UCGGCCUCCGGGUCUCCCAA; listed as RNA, chemistry not given here)
Secreted PCSK9 [1]: 72.96 ng/mL
Secreted PCSK9 [2]: 64.19 ng/mL
Percent reduction in PCSK9 secretion (25 ng mRNA:12.5 ng gRNA): 2.41%
Percent reduction in PCSK9 secretion (50 ng mRNA:25 ng gRNA): 21.98%
Average percent reduction in PCSK9 secretion: 9.79%

TG-06-152 (guide GCCUCGCCCUCCCCAAACAG; listed as RNA, chemistry not given here)
Secreted PCSK9 [1]: 57.43 ng/mL
Secreted PCSK9 [2]: 36.95 ng/mL
Percent reduction in PCSK9 secretion (25 ng mRNA:12.5 ng gRNA): 19.39%
Percent reduction in PCSK9 secretion (50 ng mRNA:25 ng gRNA): 55.09%
Average percent reduction in PCSK9 secretion: 37.24%

TG-06-172 (guide GCUGAAACAGAUGGAAUACU; listed as RNA, chemistry not given here)
Secreted PCSK9 [1]: 59.31 ng/mL
Secreted PCSK9 [2]: 44.44 ng/mL
Percent reduction in PCSK9 secretion (25 ng mRNA:12.5 ng gRNA): 16.75%
Percent reduction in PCSK9 secretion (50 ng mRNA:25 ng gRNA): 45.99%
Average percent reduction in PCSK9 secretion: 31.37%

TG-06-149 (guide AGCCCAGUUAGGAUUUGGGA; listed as RNA, chemistry not given here)
Secreted PCSK9 [1]: 38.33 ng/mL
Secreted PCSK9 [2]: 21.18 ng/mL
Percent reduction in PCSK9 secretion (25 ng mRNA:12.5 ng gRNA): 46.21%
Percent reduction in PCSK9 secretion (50 ng mRNA:25 ng gRNA): 74.26%
Average percent reduction in PCSK9 secretion: 60.23%

TG-06-148 (guide GCCGGGCCCACCUUUUCAGU; listed as RNA, chemistry not given here)
Secreted PCSK9 [1]: 44.77 ng/mL
Secreted PCSK9 [2]: 71.46 ng/mL
Percent reduction in PCSK9 secretion (25 ng mRNA:12.5 ng gRNA): 37.16%
Percent reduction in PCSK9 secretion (50 ng mRNA:25 ng gRNA): 13.15%
Average percent reduction in PCSK9 secretion: 25.15%

TG-06-128 (guide AGAAAUCAACUGGACAAGCA; listed as RNA, chemistry not given here)
Secreted PCSK9 [1]: 62.29 ng/mL
Secreted PCSK9 [2]: 42.21 ng/mL
Percent reduction in PCSK9 secretion (25 ng mRNA:12.5 ng gRNA): 12.57%
Percent reduction in PCSK9 secretion (50 ng mRNA:25 ng gRNA): 48.7%
Average percent reduction in PCSK9 secretion: 30.63%

TG-06-1046 (guide UCUCUUACAUGGGGGGAAAC; listed as RNA, chemistry not given here)
Percent reduction in PCSK9 secretion (50 ng mRNA:25 ng gRNA): 4.1%

TG-06-121 (guide GGAAGGGCUGUCGAUACUGG; listed as RNA, chemistry not given here)
Secreted PCSK9 [1]: 37.13 ng/mL
Secreted PCSK9 [2]: 28.33 ng/mL
Percent reduction in PCSK9 secretion (25 ng mRNA:12.5 ng gRNA): 47.89%
Percent reduction in PCSK9 secretion (50 ng mRNA:25 ng gRNA): 65.57%
Average percent reduction in PCSK9 secretion: 56.73%

TG-06-127 (guide UCCUCCUGCCUGGUACACAA; listed as RNA, chemistry not given here)
Secreted PCSK9 [1]: 49.1 ng/mL
Secreted PCSK9 [2]: 22.57 ng/mL
Percent reduction in PCSK9 secretion (25 ng mRNA:12.5 ng gRNA): 31.08%
Percent reduction in PCSK9 secretion (50 ng mRNA:25 ng gRNA): 72.56%
Average percent reduction in PCSK9 secretion: 51.82%
